Test system: type 1 diabetes patients with peripheral neuropathy
Assay: Phase II trial: adverse events
Settings: for Total treatment emergent AEs of any severity, number / Total treatment emergent AEs possibly related to study drug, number: all SOCs; for Total Adverse Events, Moderate / Total Adverse Events, Severe: ITT data set, number of treatment emergent AEs
[1] = High-dose C-peptide, SOC Blood and lymphatic system disorder
[2] = High-dose C-peptide, SOC Eye disorder
[3] = High-dose C-peptide, SOC Gastro-intestinal Disorders
[4] = High-dose C-peptide, SOC General disorders and administration site conditions
[5] = High-dose C-peptide, SOC Infections and infestations
[6] = High-dose C-peptide, SOC Injury poisoning, procedural complications
[7] = High-dose C-peptide, SOC Investigations
[8] = High-dose C-peptide, SOC Metabolism and nutritional disorders
[9] = High-dose C-peptide, SOC Musculoskeletal and connective tissue disorder
[10] = High-dose C-peptide, SOC Nervous system disorders
[11] = High-dose C-peptide, SOC Reproductive system and breast disorders
[12] = High-dose C-peptide, SOC Respiratory, thoracic, and mediastinal disorders
[13] = High-dose C-peptide, SOC Skin and subcutaneous tissue disorders
[14] = High-dose C-peptide, SOC Surgical and Medical
[15] = High-dose C-peptide, SOC Vascular disorders
[16] = Low-dose C-peptide, SOC Cardiac disorder
[17] = Low-dose C-peptide, SOC Eye disorder
[18] = Low-dose C-peptide, SOC Gastro-intestinal Disorders
[19] = Low-dose C-peptide, SOC Immune system disorders
[20] = Low-dose C-peptide, SOC Infections and infestations
[21] = Low-dose C-peptide, SOC Injury poisoning, procedural complications
[22] = Low-dose C-peptide, SOC Investigations
[23] = Low-dose C-peptide, SOC Metabolism and nutritional disorders
[24] = Low-dose C-peptide, SOC Musculoskeletal and connective tissue disorder
[25] = Low-dose C-peptide, SOC Nervous system disorders
[26] = Low-dose C-peptide, SOC Psychiatric disorders
[27] = Low-dose C-peptide, SOC Skin and subcutaneous tissue disorders
[28] = Low-dose C-peptide, SOC Surgical and Medical

Procedure: The safety measurements comprised collection of AEs, spontaneously reported by the patient or recorded by the investigator at each clinical visit. Review of laboratory investigations, vital signs, and physical examinations was performed at the S/B visit, visit 2, and at end of study (visit 4). ECG was performed at the S/B visit and at visit 4.
An AE was classified as “unexpected event” (i.e., if not specifically listed in the Investigator's Brochure) in terms of nature, severity, or frequency. All AEs, including intercurrent illnesses and increased severity or frequency of sign/symptoms of a concomitant disease was reported and documented as described below. AEs were documented on an “Adverse Event/Serious Adverse Event” page of the CRF and in the patient's medical records. Any AE occurring at any time after the end of the study, considered to be caused by the study medication—and therefore a possible adverse drug reaction—was reported to the sponsor.
The period of observation for AEs extended from the time the patient started on trial medication until end of the study. AEs were divided into the categories “serious” and “non-serious”. This determined the procedure used to report/document the AE.
Regardless of the classification of an AE as serious or non-serious (see above), its severity was assessed as mild, moderate, or severe, according to medical criteria alone:
Descriptive statistics were used for safety variables. For lab parameters summary statistics were presented as change from baseline and between doses. The changes from baseline were calculated and compared with normal ranges. The safety analysis set included all patients who obtained at least one dose of the investigational drug. AEs were coded according to the MedDRA dictionary. The frequencies of AEs are tabulated by body system and included/preferred term.

CC(C)C[C@H](NC(=O)[C@H](C)NC(=O)[C@H](CC(C)C)NC(=O)[C@@H]1CCCN1C(=O)[C@H](CCC(N)=O)NC(=O)[C@H](CC(C)C)NC(=O)[C@H](CO)NC(=O)CNC(=O)[C@H](C)NC(=O)CNC(=O)[C@@H]1CCCN1C(=O)CNC(=O)CNC(=O)CNC(=O)[C@H](CC(C)C)NC(=O)[C@H](CCC(=O)O)NC(=O)[C@@H](NC(=O)[C@H](CCC(N)=O)NC(=O)CNC(=O)[C@@H](NC(=O)[C@H](CCC(N)=O)NC(=O)[C@H](CC(C)C)NC(=O)[C@H](CC(=O)O)NC(=O)[C@H](CCC(=O)O)NC(=O)[C@H](C)NC(=O)[C@@H](N)CCC(=O)O)C(C)C)C(C)C)C(=O)N[C@@H](CCC(=O)O)C(=O)NCC(=O)N[C@@H](CO)C(=O)N[C@@H](CC(C)C)C(=O)N[C@@H](CCC(N)=O)C(=O)O [C-peptide]
tolerability (500-1,500 nmoL/24 h): well tolerated | Anemia, number of AEs [1]: 1 | Hemorrhage, number of AEs [1]: 1 | Macular edema, number of AEs [2]: 1 | Vitreous hemorrhage, number of AEs [2]: 1 | Abdominal pain, number of AEs [3]: 3 | Aptyalism, number of AEs [3]: 1 | Diarrhea, number of AEs [3]: 1 | Gastritis, number of AEs [3]: 1 | Nausea, number of AEs [3]: 4 | Tooth ache, number of AEs [3]: 3 | Chest pain, number of AEs [4]: 2 | Fatigue, number of AEs [4]: 2 | Feeling abnormal, number of AEs [4]: 3 | Injection site burning, number of AEs [4]: 1 (1) | Injection site burning, number of AEs possibly related to study drug [4]: 1 (1) | Gastroenteritis, number of AEs [5]: 7 | Otitis, number of AEs [5]: 2 | Pharyngitis, number of AEs [5]: 2 | Sepsis, number of AEs [5]: 1 | Sinusitis, number of AEs [5]: 2 | Skin infection, number of AEs [5]: 1 | Tonsilitis, number of AEs [5]: 2 | Tooth infection, number of AEs [5]: 2 | Upper respiratory tract infection, number of AEs [5]: 1 | Urinary tract infection, number of AEs [5]: 1 | Blister, number of AEs [6]: 2 | Dizziness, number of AEs [6]: 1 | Eye injury, number of AEs [6]: 1 | Food poisoning, number of AEs [6]: 1 | Joint sprain ankle, number of AEs [6]: 1 | Knee injury, number of AEs [6]: 1 | Rib fracture/injury, number of AEs [6]: 2 | Scar, number of AEs [6]: 1 | Tooth injury, number of AEs [6]: 1 | Cardiac murmur, number of AEs [7]: 1 | Hematuria, number of AEs [7]: 1 | Hepatic enzyme increase, number of AEs [7]: 2 | Hypercalcemia, number of AEs [7]: 1 | Leucopenia, number of AEs [7]: 1 | Lymph node enlargement, number of AEs [7]: 1 | Hyperglycemia, number of AEs [8]: 1 | Hypoglycemia, number of AEs [8]: 5 | Hypoglycemia, number of AEs possibly related to study drug [8]: 1 | Hypoglycemic coma, number of AEs [8]: 2 | Vitamin B12 deficiency, number of AEs [8]: 1 | Arthralgia, number of AEs [9]: 3 | Arthritis, number of AEs [9]: 1 | Arthropathy, number of AEs [9]: 1 | Back pain, number of AEs [9]: 2 | Epicondylitis, number of AEs [9]: 1 | Muscle spasm, number of AEs [9]: 1 | Muscular atrophy, number of AEs [9]: 1 | Myalgia, number of AEs [9]: 1 | Pain in extremity, number of AEs [9]: 4 | Pain in shoulder, number of AEs [9]: 1 | Tendinitis, number of AEs [9]: 1 | Tendosynovitis, number of AEs [9]: 1 | Torticollis, number of AEs [9]: 1 | Burning sensation, number of AEs [10]: 1 | Headache, number of AEs [10]: 17 | Hyperaesthesia, number of AEs [10]: 1 (1) | Hyperaesthesia, number of AEs possibly related to study drug [10]: 1 (1) | Migraine, number of AEs [10]: 1 | Paraesthesia, number of AEs [10]: 2 (2) | Paraesthesia, number of AEs possibly related to study drug [10]: 2 (2) | Restless legs syndrome, number of AEs [10]: 1 | Sciatica, number of AEs [10]: 1 | Sensory loss, number of AEs [10]: 1 | Vertigo, number of AEs [10]: 1 | Pregnancy, number of AEs (High-dose C-peptide, SOC Pregnancy, puerperium and perinatal conditions): 2 | Menopausal disorder, number of AEs [11]: 1 | Menstration irregular, number of AEs [11]: 1 | Cough, number of AEs [12]: 1 | Epistaxis, number of AEs [12]: 1 | Skin induration, number of AEs [13]: 1 | Skin infection, number of AEs [13]: 2 | Sweating increased, number of AEs [13]: 1 | Limb operation, number of AEs [14]: 1 | Tooth extraction, number of AEs [14]: 1 | Arterial disorder, number of AEs [15]: 1 | Hypertension, number of AEs [15]: 1 | Hypotension, number of AEs [15]: 1 | Total treatment emergent AEs of any severity, number (High-dose C-peptide): 156 | Total treatment emergent AEs possibly related to study drug, number (High-dose C-peptide): 5 | Anemia, number of AEs (Low-dose C-peptide, SOC Blood and lymphatic system disorder): 1 | Cardiac arrhythmia, number of AEs [16]: 1 | ST elevation (ECG), number of AEs [16]: 1 | Tachycardia (stress, number of AEs) [16]: 1 | Dacryocanaliculitis, number of AEs [17]: 1 | Vision decreased, number of AEs [17]: 1 | Celiac disease, number of AEs [18]: 1 | Diarrhea, number of AEs [18]: 2 | Flatulence, number of AEs [18]: 1 | Nausea, number of AEs [18]: 1 | Reflux gastritis, number of AEs [18]: 2 | Tooth ache, number of AEs [18]: 2 | Pyrexia, number of AEs (Low-dose C-peptide, SOC General disorders and administration site conditions): 3 | Allergic urticaria, number of AEs [19]: 1 | Dermatitis allergic, number of AEs [19]: 1 | Rheumarthritis, number of AEs [19]: 1 | Season allergy, number of AEs [19]: 1 | Borrelia infection, number of AEs [20]: 1 | Bronchitis, number of AEs [20]: 1 | Candidiasis, number of AEs [20]: 2 | Gastroenteritis, number of AEs [20]: 2 | Herpes simplex, number of AEs [20]: 1 | Herpeszoster, number of AEs [20]: 1 | Influenza, number of AEs [20]: 1 | Nasopharyngitis, number of AEs [20]: 31 | Otitis, number of AEs [20]: 1 | Pharyngitis, number of AEs [20]: 1 | Sinusitis, number of AEs [20]: 4 | Skin infection, number of AEs [20]: 5 | Tonsilitis, number of AEs [20]: 1 | Upper respiratory tract infection, number of AEs [20]: 3 | Urinary tract infection, number of AEs [20]: 3 | Joint sprain ankle, number of AEs [21]: 1 | Rib fracture/injury, number of AEs [21]: 1 | Skin injury, number of AEs [21]: 2 | Elevated serum, number of AEs [22]: 1 | Hepatic enzyme increase, number of AEs [22]: 2 | Hepatic enzyme increase, number of AEs possibly related to study drug [22]: 1 | Hyperkalaemia, number of AEs [22]: 1 | Weight increased, number of AEs [22]: 1 | Hyperglycemia, number of AEs [23]: 1 (1) | Hyperglycemia, number of AEs possibly related to study drug [23]: 1 (1) | Hyperlipidemia, number of AEs [23]: 1 | Hypoglycemia, number of AEs [23]: 2 | Hypoglycemia, number of AEs possibly related to study drug [23]: 1 | Hypoglycemic coma, number of AEs [23]: 2 | Insulin sensitivity, number of AEs [23]: 1 (1) | Insulin sensitivity, number of AEs possibly related to study drug [23]: 1 (1) | Arthralgia, number of AEs [24]: 3 | Arthritis, number of AEs [24]: 1 | Arthropathy, number of AEs [24]: 2 | Epicondylitis, number of AEs [24]: 1 | Exostosis, number of AEs [24]: 2 | Muscle cramp, number of AEs [24]: 1 | Musculoskeletal chest, number of AEs [24]: 1 | Myalgia, number of AEs [24]: 3 | Pain in extremity, number of AEs [24]: 3 | Pain in extremity, number of AEs possibly related to study drug [24]: 1 | Pain in neck, number of AEs [24]: 1 | Synovial disorder, number of AEs [24]: 1 | Tendinous contracture, number of AEs [24]: 1 | Carpal tunnel syndrome, number of AEs [25]: 1 | Dizziness, number of AEs [25]: 2 | Headache, number of AEs [25]: 35 | Hyperthermeasthesia, number of AEs [25]: 2 (2) | Hyperthermeasthesia, number of AEs possibly related to study drug [25]: 2 (2) | Hypoaesthesia, number of AEs [25]: 2 | Multiple sclerosis, number of AEs [25]: 1 | Paraesthesia, number of AEs [25]: 2 | Paraesthesia, number of AEs possibly related to study drug [25]: 1 | Depression, number of AEs [26]: 1 | Panic disorder, number of AEs [26]: 1 | Stress disorder, number of AEs [26]: 1 | Asthma, number of AEs (Low-dose C-peptide, SOC Respiratory, thoracic, and mediastinal disorders): 1 | Dry skin, number of AEs [27]: 1 | Fibroma, number of AEs [27]: 1 | Skin induration, number of AEs [27]: 2 | Eye operation, number of AEs [28]: 1 | Limb operation, number of AEs [28]: 1 | Hypertension, number of AEs (Low-dose C-peptide, SOC Vascular disorders): 1 | Total treatment emergent AEs of any severity, number (Low-dose C-peptide): 173 | Total treatment emergent AEs possibly related to study drug, number (Low-dose C-peptide): 8 | local reactions (S.C. injection, 500-1,500 nmoL/24 h): No local reactions | SAEs (high-dose C-peptide (1,500 nmoL/24 h)): Two | AEs possibly/probably related to the study drug (high-dose C-peptide group): 5 | patients without reported AEs (high-dose C-peptide group): 6 patients | patients with AEs (high-dose C-peptide group, 44 out of 52 patients): 85% | Total Adverse Events, Moderate (high-dose C-peptide group): Moderate = 43 | Total Adverse Events, Severe (high-dose C-peptide group): Severe = 9 | relationship of SAEs to the trial medication (high-dose C-peptide, investigators' assessment): unlikely/not related | patients without reported AEs (low-dose C-peptide group): 8 patients | patients with AEs (low-dose C-peptide group, 48 out of 56 patients): 86% | Total Adverse Events, Moderate (low-dose C-peptide group): Moderate = 51 | Total Adverse Events, Severe (low-dose C-peptide group): Severe = 1
